{
  "source": "patent US20060058383A1",
  "about": "(priority 2004, published 2006)",
  "key": {"[1]": {"system": "human lymphoma cells (Raji)", "test": "Sensitivity under hypoxic versus normoxic conditions, annexin-V/PI assay 24 h", "format": "cell-based", "conditions": "40 μM", "experimental": "(Annexin-V/PI assay, 24 h)\nCancer cells in solid tumors have to adapt to the hypoxia environment due to insufficient blood supply. Under hypoxia conditions, cancer cells use the glycolytic pathway to generate ATP without consuming oxygen. This metabolic adaptation also renders cancer cells relatively resistant to anticancer agents and radiation therapy, partially due to up-regulation of expression of cell survival factors such as HIF-1α. […] However, because under hypoxia condition cancer cells dependent on glycolysis for generation of ATP, it is contemplated that such cancer cells are vulnerable to glycolytic inhibition by Glycolycin. […] Thus, it is envisioned that Glycolycin can be use for effective treatment of many solid tumors, either as a single agent or in combination with other anticancer agents."}, "[2]": {"system": "colon cancer cells without p53 expression", "test": "Sensitivity of colon cancer cells without p53", "format": "cell-based, human", "conditions": "separate experiment", "experimental": "(§1) The effect of Glycolycin on human colon cancer cells (HCT116) and human brain tumor cells (U87MG) were tested using MTT assays for a 72 hour incubation. […] The IC50 value of S-Glycolycin for brain tumor U87MG cells is approximately 30 μM. […] This is of clinical significance, since the majority of human cancers are defective in p53 function and show reduced response to radiotherapy and certain anticancer agents."}, "[3]": {"system": "respiration-deficient C6F cells (HL-60-C6F)", "test": "Effect of glutamine on cytotoxic activity, apoptosis at 24 h", "format": "cell-based, human", "conditions": "1 mM glutamine for 2 h", "experimental": "(§2) The effect of glutamine on the cytotoxic activity of S-Glycolycin in wild-type HL-60 cells and respiration-deficient C6F cells was compared. Parental HL-60 cells were incubated with the indicated concentrations of S-Glycolycin in the presence or absence of 1 mM glutamine for 2 h, washed, and re-cultured in fresh medium. Apoptosis was measured at 24 h. […] In FIG. 26, the respiration-deficient cells (HL-60-C6F) were incubated with the indicated concentrations of S-Glycolycin in the presence or absence of 1 mM glutamine for 2 h, washed, and re-cultured in fresh medium. Apoptosis was measured at 24 h. Thus, glutamine supplement offers some degree of protection for cells with competent mitochondrial function."}, "parental HL-60 cells": {"system": "parental HL-60 cells", "test": "Effect of glutamine on cytotoxic activity, apoptosis at 24 h", "format": "cell-based, human", "conditions": "1 mM glutamine for 2 h", "experimental": "as §2"}, "[4]": {"system": "BAD phosphorylation (Ser112) in HL-60 cells", "test": "BAD phosphorylation at Ser112, western blot", "format": "cell-based, human", "experimental": "HL-60 cells were incubated with the indicated concentrations of each compound for 3 h. BAD and its phosphorylation at Ser112 were measured by western blot analysis, using the respective antibodies. β-Actin was also blotted as the protein loading control.\nA time- and dose-dependent effect of S-Glycolycin on the expression level of pro-apoptotic factor BAD and its phosphorylation at Ser112 is provided in FIG. 18. HL-60 cells were incubated with the indicated concentrations of S-Glycolycin for various times. Total BAD protein and its phosphorylation at Ser112 were measured by western blot analysis using the respective antibodies. β-actin was also blotted as the protein loading control. […] Note that severe ATP depletion can be induced by S-Glycolycin at 30-50 μM, but not at 10 μM (FIG. 15)."}, "[5]": {"system": "human leukemia HL-60 cell line", "test": "Depletion of cellular ATP pool (PCA extraction, HPLC)", "format": "cell-based", "experimental": "(§3) Cells were incubated with the indicated concentrations of S-Glycolycin or 3-BrPA for 12 h. Cellular ATP was extracted by 0.4 N PCA, neutralized with KOH, and quantified by HPLC analysis. […] Incubation of cells with 0.03 mM S-Glycolycin completely depleted cellular ATP in both cell lines, while it required a 10-fold greater concentration (0.3 mM) of 3-BrPA to achieve the same degree of ATP depletion."}, "[6]": {"system": "human colon cancer cells (HCT116)", "test": "Colony formation under hypoxic conditions, with radiation", "format": "cell-based", "description": "It is known in the art that under hypoxic conditions, cancer cells become less sensitive to radiation therapy, partially due to up-regulation of expression of survival factors and less generation of free radicals without oxygen. However, under hypoxic conditions cancer cells depend on glycolysis for generation of ATP, which is the essential energy source for repair of the DNA damage caused by radiation. Thus, it is contemplated that Glycolycin can effectively deplete cellular ATP pool under hypoxic conditions and enhance the therapeutic activity of radiation. […] Combination of Glycolycin and radiation almost completely killed all cells plated (up to 200,000 cells/well). Thus, Glycolycin is an effective agent to enhance the effectiveness of radiotherapy."}, "[7]": {"system": "BAD phosphorylation in primary CLL cells", "test": "BAD dephosphorylation in primary leukemia cells, western blot", "format": "cell-based, human"}, "primary CLL cells": {"system": "primary CLL cells", "test": "MTT assay in primary leukemia cells", "format": "cell-based, human"}, "[8]": {"system": "HL-60 cells with high Bcl-2 expression", "test": "MTT growth inhibition of Bcl-2 transfected cells", "format": "cell-based, human", "conditions": "MTT assay", "experimental": "Cell growth inhibition was measured by MTT assay.\nIncreased expression of the anti-apoptotic molecule Bcl-2 has been associated with drug resistance in cancer cells. The over-expression of Bcl-2 in HL-60 cells was […] against the cytotoxic effect of S-Glycolycin. […] Thus, Glycolycin may be used to overcome drug resistance due to Bcl-2 over expression."}, "[9]": {"system": "respiration-deficient subclone HL-60/C6F cells", "test": "Depletion of cellular ATP pool (PCA extraction, HPLC)", "format": "cell-based, human", "conditions": "12 h incubation", "experimental": "as §3"}, "HL-60/AR cells": {"system": "HL-60/AR cells", "test": "MTT cytotoxicity, drug-resistant clone versus parental cells", "format": "cell-based, human", "conditions": "MTT assay", "experimental": "HL-60 cell line and its drug-resistant clone HL-60/AR were incubated with the indicated concentrations of doxorubicin, vincristine, and 3-BrPA for 72 h. Cytotoxicity was measured by MTT assay. […] Based on the teachings provided herein, studies may be performed to determine the sensitivity of HL-60/AR cells to Glycolycin.\nAra-C, a drug commonly used in the frontline treatment of leukemia, was used in parallel experiments. Cytotoxicity was measured by MTT assay."}, "[10]": {"system": "human brain tumor cells (U87MG)", "test": "MTT assay, 72 hour incubation", "format": "cell-based", "conditions": "U-87 MG", "experimental": "as §1"}, "[11]": {"system": "human colon cancer cells (HCT116)", "test": "MTT assay, 72 hour incubation", "format": "cell-based", "conditions": "HCT-116", "experimental": "as §1"}, "HL-60 cells": {"system": "HL-60 cells", "test": "Induction of apoptosis, annexin-V/PI flow cytometry", "format": "cell-based, human", "conditions": "30 μM; 24 h", "experimental": "HL-60 cells were incubated with the indicated concentrations of S-Glycolycin or 3-BrPA for 24 h. Apoptosis was measured by double staining with annexin-V and PI, followed by flow cytometry analysis. […] Incubation of HL-60 cells with 30 μM of S-Glycolycin caused more 90% cells to undergo apoptosis in 24 h, whereas the same concentration of 3-BrPA killed less than 20% of the cells within the same time period."}},
  "data": [
    {"smiles": "O=C(O)O.O=C([O-])C(=O)CBr.[Na+]", "note": "[S-Glycolycin, Sodium 3-bromo-2-oxopropionate carbonic acid]", "values": [
      {"measurement": "sensitivity under hypoxic versus normoxic conditions", "setting": "[1]", "result": "significantly more sensitive"},
      {"measurement": "sensitivity compared with p53-expressing colon cancer cells", "setting": "[2]", "result": "similarly sensitive"},
      {"measurement": "protection by glutamine from cytotoxic effect", "setting": "[3]", "result": "no protection"},
      {"measurement": "protection by glutamine from cytotoxic effect", "setting": "parental HL-60 cells", "result": "partial protection"},
      {"measurement": "change in BAD / phosphorylation at Ser112", "setting": "[4]; 10 μM", "result": "did not cause any significant change"},
      {"measurement": "change in BAD / phosphorylation at Ser112", "setting": "[4]; 50 μM", "result": "almost complete dephosphorylation"},
      {"measurement": "dephosphorylation of BAD, comparison", "setting": "[4]; 3 h incubation", "result": "more effective than 3-BrPA"},
      {"measurement": "concentration that completely depleted cellular ATP", "setting": "[5]; 12 h incubation, HL-60", "result": 0.03, "unit": "mM"},
      {"measurement": "concentration inducing severe ATP depletion", "setting": "[5]; not at 10 μM", "result": "30 to 50", "unit": "µM"},
      {"measurement": "reduced colony formation", "setting": "[6]; 40 μM in combination with radiation (6 Gy), hypoxic conditions", "result": "more than 99.9%"},
      {"measurement": "sensitivity under hypoxic conditions", "setting": "[6]; drug alone, hypoxic versus normoxic", "result": "more sensitive"},
      {"measurement": "BAD dephosphorylation, comparison", "setting": "[7]", "result": "more active than 3-BrPA"},
      {"measurement": "killing CLL cells as measured by IC50 values, comparison", "setting": "primary CLL cells", "result": "more potent than 3-BrPA"},
      {"measurement": "sensitivity of Bcl-2 transfected cells compared to transfected control (Neo)", "setting": "[8]", "result": "remain sensitive"},
      {"measurement": "concentration that completely depleted cellular ATP", "setting": "[9]", "result": 0.03, "unit": "mM"},
      {"measurement": "sensitivity of HL-60/AR compared to parental HL-60 cells", "setting": "HL-60/AR cells", "result": "equally sensitive"},
      {"measurement": "IC50", "setting": "[10]", "result": "~30", "unit": "µM"},
      {"measurement": "IC50", "setting": "[11]", "result": "5 to 10", "unit": "µM"},
      {"measurement": "cells undergoing apoptosis", "setting": "HL-60 cells", "result": "> 90", "unit": "%"}
    ]}
  ]
}
